Measured values as given in ChEMBL document CHEMBL5212743, “Selectivity Literature for EUbOPEN Chemogenomics Library wave 3” (2023).

Tests used:
[1] = target: 5-hydroxytryptamine receptor 2A (Homo sapiens, UniProt P28223); test: Selectivity interaction (GPCR panel (PDSP screen)) EUB0000540a HTR2A
[2] = target: 5-hydroxytryptamine receptor 2B (Homo sapiens, UniProt P41595); test: Selectivity interaction (GPCR panel (PDSP screen)) EUB0000540a HTR2B
[3] = target: 5-hydroxytryptamine receptor 2C (Homo sapiens, UniProt P28335); test: Selectivity interaction (GPCR panel (PDSP screen)) EUB0000540a HTR2C
[4] = target: T1, Alpha-2C adrenergic receptor (Homo sapiens, UniProt P18825); test: Selectivity interaction (GPCR panel (PDSP screen)) EUB0000540a ADRA2C
T1 sequence (P18825 whole entry): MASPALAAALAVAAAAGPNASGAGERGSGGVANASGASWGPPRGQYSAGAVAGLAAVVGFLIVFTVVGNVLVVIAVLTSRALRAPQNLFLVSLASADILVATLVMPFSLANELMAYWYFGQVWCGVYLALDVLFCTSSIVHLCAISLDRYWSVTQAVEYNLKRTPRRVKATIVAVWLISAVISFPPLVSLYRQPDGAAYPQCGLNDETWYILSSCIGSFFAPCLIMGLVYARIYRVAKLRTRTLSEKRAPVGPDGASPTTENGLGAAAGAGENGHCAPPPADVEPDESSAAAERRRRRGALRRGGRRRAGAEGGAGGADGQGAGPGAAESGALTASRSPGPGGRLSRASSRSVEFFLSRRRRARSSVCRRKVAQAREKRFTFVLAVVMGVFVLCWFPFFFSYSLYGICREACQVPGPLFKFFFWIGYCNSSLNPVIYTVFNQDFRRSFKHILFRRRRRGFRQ

[5] = target: Sigma non-opioid intracellular receptor 1 (Homo sapiens, UniProt Q99720); test: Selectivity interaction (GPCR panel (PDSP screen)) EUB0000540a SIGMAR1
[6] = target: Mitotic checkpoint serine/threonine-protein kinase BUB1 (Homo sapiens) (UniProt O43683); test: Selectivity interaction (GPCR panel (PDSP screen)) EUB0000540a BUB1; conditions: at 1 µM
[7] = target: Serine/threonine-protein kinase WNK2 (Homo sapiens) (UniProt Q9Y3S1); test: Selectivity interaction (GPCR panel (PDSP screen)) EUB0000540a WNK2; conditions: at 1 µM
[8] = target: T2, Gamma-aminobutyric acid receptor subunit alpha-1 (Homo sapiens, UniProt P14867); test: Selectivity interaction (GPCR panel (PDSP screen)) EUB0000540a GABRA1
T2 sequence (P14867 whole entry): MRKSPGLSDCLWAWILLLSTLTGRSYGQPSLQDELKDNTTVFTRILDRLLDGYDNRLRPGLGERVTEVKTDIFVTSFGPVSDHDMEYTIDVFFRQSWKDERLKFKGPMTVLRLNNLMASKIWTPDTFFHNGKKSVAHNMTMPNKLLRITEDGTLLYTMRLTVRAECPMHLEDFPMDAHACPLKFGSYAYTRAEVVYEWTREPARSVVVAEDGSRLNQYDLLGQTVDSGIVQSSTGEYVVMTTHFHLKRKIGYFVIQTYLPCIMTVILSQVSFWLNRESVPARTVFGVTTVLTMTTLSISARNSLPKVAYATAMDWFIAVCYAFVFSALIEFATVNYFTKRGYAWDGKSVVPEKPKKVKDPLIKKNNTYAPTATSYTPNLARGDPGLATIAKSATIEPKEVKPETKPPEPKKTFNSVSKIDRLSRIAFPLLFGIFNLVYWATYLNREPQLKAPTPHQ

[9] = target: Sigma intracellular receptor 2 (Homo sapiens, UniProt Q5BJF2); test: Selectivity interaction (GPCR panel (PDSP screen)) EUB0000540a TMEM97
[10] = target: T3, Mitogen-activated protein kinase kinase kinase 13 (Homo sapiens) (UniProt O43283); test: Selectivity interaction (KinomeScan (DiscoverX)) EUB0000540a MAP3K13; conditions: at 1 µM
T3 sequence (whole entry): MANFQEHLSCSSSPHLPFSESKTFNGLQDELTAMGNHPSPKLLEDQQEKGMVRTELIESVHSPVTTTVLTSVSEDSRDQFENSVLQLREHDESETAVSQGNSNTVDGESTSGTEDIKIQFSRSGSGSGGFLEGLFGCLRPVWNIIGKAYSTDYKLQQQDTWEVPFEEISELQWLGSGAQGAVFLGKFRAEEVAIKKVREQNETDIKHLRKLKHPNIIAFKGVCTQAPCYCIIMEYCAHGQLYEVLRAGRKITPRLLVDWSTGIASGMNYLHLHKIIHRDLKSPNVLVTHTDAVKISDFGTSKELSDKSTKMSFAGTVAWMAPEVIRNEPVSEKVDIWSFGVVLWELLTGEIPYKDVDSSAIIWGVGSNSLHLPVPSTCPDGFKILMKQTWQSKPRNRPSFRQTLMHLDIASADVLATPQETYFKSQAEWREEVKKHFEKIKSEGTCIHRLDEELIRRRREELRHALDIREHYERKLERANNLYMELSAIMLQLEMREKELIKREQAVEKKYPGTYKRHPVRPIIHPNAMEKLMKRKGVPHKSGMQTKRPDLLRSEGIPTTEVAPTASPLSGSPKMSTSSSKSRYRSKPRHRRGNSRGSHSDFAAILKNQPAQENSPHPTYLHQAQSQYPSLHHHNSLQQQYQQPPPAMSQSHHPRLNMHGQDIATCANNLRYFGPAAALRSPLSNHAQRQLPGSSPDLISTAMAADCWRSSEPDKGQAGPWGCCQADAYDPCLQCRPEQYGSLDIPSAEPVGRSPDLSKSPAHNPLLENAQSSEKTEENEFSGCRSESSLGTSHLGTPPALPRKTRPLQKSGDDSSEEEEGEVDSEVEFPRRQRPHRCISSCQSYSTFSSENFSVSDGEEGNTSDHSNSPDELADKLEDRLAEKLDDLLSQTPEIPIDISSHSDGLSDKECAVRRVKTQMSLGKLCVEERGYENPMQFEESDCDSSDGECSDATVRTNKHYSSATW

D(1A) dopamine receptor = D(1A) dopamine receptor (Homo sapiens, UniProt P21728); test: Selectivity interaction (GPCR panel (PDSP screen)) EUB0000342a DRD1
Histamine H4 receptor = Histamine H4 receptor (Homo sapiens, UniProt Q9H3N8); test: Selectivity interaction (GPCR panel (PDSP screen)) EUB0000342a HRH4

Chain of Sigma intracellular receptor 2 (Q5BJF2 whole entry): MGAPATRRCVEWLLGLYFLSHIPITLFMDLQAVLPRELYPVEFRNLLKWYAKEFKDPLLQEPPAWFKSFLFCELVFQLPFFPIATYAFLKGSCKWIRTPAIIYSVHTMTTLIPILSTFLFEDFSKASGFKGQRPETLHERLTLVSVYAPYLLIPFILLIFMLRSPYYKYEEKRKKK
Chain of 5-hydroxytryptamine receptor 2B (P41595 whole entry): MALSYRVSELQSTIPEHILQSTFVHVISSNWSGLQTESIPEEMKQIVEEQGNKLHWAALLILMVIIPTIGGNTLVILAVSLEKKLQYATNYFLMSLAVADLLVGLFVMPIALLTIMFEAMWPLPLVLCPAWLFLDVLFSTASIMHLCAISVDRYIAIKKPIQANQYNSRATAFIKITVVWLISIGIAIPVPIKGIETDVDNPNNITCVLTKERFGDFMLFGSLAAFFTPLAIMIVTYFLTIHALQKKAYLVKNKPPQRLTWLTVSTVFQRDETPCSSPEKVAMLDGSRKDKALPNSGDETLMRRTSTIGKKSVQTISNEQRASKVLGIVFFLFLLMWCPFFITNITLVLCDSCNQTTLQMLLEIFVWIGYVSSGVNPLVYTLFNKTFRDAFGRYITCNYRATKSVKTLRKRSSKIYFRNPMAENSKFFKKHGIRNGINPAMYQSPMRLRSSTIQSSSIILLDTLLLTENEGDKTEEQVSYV
Chain of Sigma non-opioid intracellular receptor 1 (Q99720 whole entry): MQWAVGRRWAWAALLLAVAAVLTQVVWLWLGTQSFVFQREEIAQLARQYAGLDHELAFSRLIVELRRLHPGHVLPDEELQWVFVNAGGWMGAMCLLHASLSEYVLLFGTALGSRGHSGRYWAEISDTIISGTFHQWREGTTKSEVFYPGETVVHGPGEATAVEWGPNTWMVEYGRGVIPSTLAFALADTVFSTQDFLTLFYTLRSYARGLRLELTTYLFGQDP
Chain of D(1A) dopamine receptor (P21728 whole entry): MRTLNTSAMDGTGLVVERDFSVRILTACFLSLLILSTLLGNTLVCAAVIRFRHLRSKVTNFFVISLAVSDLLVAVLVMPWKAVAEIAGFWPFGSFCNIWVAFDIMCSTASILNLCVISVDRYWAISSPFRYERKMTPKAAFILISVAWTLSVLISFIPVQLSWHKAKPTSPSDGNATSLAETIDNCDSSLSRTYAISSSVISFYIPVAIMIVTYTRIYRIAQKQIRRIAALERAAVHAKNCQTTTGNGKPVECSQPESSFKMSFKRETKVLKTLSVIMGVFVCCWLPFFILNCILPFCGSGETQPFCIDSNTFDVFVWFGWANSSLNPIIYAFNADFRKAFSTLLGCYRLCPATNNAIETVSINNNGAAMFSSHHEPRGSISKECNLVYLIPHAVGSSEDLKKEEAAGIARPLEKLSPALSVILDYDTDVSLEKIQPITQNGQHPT
Chain of Mitotic checkpoint serine/threonine-protein kinase BUB1 (Homo sapiens) (O43683 whole entry, looked up): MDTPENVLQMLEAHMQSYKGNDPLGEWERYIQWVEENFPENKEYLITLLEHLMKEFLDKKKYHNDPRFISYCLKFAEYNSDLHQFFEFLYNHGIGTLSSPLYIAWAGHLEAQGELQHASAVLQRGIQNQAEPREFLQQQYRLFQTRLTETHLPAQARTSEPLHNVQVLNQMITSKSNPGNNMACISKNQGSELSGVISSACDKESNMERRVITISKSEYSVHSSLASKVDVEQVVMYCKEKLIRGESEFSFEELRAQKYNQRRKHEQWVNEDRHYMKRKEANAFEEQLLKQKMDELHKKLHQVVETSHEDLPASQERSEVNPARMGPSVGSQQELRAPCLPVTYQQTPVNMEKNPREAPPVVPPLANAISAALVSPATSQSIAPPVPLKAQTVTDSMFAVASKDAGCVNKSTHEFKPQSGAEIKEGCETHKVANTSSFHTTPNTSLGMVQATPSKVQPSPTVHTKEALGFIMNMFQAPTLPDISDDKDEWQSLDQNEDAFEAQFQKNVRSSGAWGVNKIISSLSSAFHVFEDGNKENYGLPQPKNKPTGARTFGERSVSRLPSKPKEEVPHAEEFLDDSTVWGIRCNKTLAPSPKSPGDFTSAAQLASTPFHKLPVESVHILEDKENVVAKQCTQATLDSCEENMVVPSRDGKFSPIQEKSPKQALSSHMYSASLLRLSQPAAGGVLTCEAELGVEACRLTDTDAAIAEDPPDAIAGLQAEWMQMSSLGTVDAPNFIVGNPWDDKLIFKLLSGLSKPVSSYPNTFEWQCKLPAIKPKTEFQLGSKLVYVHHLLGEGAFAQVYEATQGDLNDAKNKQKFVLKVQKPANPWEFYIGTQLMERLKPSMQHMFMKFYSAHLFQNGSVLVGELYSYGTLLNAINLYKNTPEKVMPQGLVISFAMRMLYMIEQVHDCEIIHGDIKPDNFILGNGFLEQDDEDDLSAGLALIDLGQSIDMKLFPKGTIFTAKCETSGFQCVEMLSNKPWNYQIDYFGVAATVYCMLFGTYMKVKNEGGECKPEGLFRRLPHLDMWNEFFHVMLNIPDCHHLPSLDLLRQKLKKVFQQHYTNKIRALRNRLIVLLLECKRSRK
Chain of 5-hydroxytryptamine receptor 2C (P28335 whole entry): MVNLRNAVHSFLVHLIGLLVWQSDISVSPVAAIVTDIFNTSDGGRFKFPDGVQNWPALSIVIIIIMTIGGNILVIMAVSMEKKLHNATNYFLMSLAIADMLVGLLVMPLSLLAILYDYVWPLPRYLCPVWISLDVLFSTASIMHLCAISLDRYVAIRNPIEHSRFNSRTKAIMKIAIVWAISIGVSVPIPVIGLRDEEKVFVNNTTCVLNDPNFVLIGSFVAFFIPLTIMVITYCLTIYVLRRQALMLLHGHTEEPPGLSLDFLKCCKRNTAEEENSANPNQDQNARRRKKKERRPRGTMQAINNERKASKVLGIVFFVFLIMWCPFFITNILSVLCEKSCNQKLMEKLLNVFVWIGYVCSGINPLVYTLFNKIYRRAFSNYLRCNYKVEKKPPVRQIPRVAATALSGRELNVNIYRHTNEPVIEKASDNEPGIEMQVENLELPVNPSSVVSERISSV
Chain of 5-hydroxytryptamine receptor 2A (P28223 whole entry): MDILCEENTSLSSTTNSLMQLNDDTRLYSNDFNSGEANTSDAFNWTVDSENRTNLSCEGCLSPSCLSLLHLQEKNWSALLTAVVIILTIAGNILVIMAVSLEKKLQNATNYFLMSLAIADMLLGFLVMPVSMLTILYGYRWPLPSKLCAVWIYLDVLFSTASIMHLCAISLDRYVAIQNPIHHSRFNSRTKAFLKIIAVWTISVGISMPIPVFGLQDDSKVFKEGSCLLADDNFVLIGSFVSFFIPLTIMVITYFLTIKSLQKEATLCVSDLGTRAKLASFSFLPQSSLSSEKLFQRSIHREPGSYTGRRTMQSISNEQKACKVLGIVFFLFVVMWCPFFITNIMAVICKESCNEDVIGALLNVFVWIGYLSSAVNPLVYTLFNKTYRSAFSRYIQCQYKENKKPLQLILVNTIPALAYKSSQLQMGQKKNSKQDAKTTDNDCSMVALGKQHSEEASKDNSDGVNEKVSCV

Ki [1] | Ki [2] | Ki [3] | Ki [4] | Ki [5] | % of control [6] | % of control [7] | Ki [8] | Ki [9] | % of control [10] | Ki (D(1A) dopamine receptor) | Ki (Histamine H4 receptor) | SMILES
249 nM | 1340 nM | 1660 nM | 596 nM | 472 nM | 1.4% | 0% | 1140 nM | 437 nM | 0% | – | – | O=C(Nc1cccnn1)N1CC(C/C=C/c2cncc(Oc3ccc(C(F)(F)F)cn3)n2)C1
– | – | – | – | – | – | – | – | – | – | > 10000 nM | > 10000 nM | O=C(c1ccc(F)cc1)N1CC(COc2ccc(Br)cc2)(C(=O)O)C1 [PF-04475866]
